# Assay results as given in US6703212B1, “Methods and kits for diagnosing Alzheimer's disease from a blood sample” (priority 1997, dated 2004).
# System: PKC
# Experiment: Fluorescence properties of fim-1 with liposomes, purified PKC and erythrocytes
# Assay type: biochemical
# Settings: fim-1 500 nM, Ex 485 nm
# Protocol: Liposomes prepared from lipidic extracts of brain and a commercial preparation of purified a PKC are used, then erythrocytes are added.
# This preparation is incubated for 20 minutes at ambient temperature, in the presence of fim-1 (500 nM) in a PBS buffer (150 mM NaCl, 10 mM NaHPO4, 5 mM D-glucose, 500 μm CaCl2, pH 7.4.
# After washing, centrifugation and resuspension in PBS 1/150, the fluorescence emission spectrum is recorded between […], with an excitation wavelength of 485 nm.
# The spectrum obtained is standardized relative to the fluorescence intensity measured with the probe alone, then broken down into the 3 elementary gaussian distributions represented in FIG. 1. An emission maximum is noted at 518, 535 and 586 nm respectively. The interactions between fim-1 and the membrane lipids as well as the PKC is expressed by a slight shift of the spectrum between […] for the lipids and an increase in fluorescence between 510 and 530 nm, and beyond 570 nm for the PKC.
Compound,effect on fluorescence intensity of fim-1 (addition of inhibitor),increase of quantal yield of fim-1 fluorescence (factor) (in the presence of activator)
CN[C@@H]1C[C@H]2O[C@@](C)([C@@H]1OC)n1c3ccccc3c3c4c(c5c6ccccc6n2c5c31)C(=O)NC4 [staurosporine],inhibition in the fluorescence intensity,
"CCCCCCCCCCCCCC(=O)O[C@@H]1[C@@H](C)[C@@]2(O)[C@@H](C=C(CO)C[C@]3(O)C(=O)C(C)=C[C@@H]23)[C@@H]2C(C)(C)[C@]12OC(C)=O [phorbol ester, phorbol myristate acetate]",,5000
